Experiments:
Rhizoctonia solani = assay: Activity against Rhizoctonia in-vitro (RSI); type: cell-based; conditions: 10 ppm, 10 days, 20° C., mycelial growth
Method in brief: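 R. solani mycelial fragments (5×10^4/ml) in half-strength Potato Dextrose Broth with compound added from acetone to 10 ppm final. Mycelial growth assessed after 10 days at 20° C, rated against untreated or diluent control.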

Venturia inaequalis = assay: Activity against apple scab in-vitro (VII); type: cell-based; conditions: 10 ppm, 10 days, 20° C., mycelial growth
Method in brief: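 Compound in acetone was tested at 10 ppm final in half-strength Potato Dextrose Broth inoculated with V. inaequalis mycelial fragments and spores at 5×10^4 propagules/ml. After 10 days at 20° C, mycelial growth was rated against untreated or diluent controls.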

Alternaria solani = assay: Activity against tomato early blight (AS); type: in vivo; conditions: Table VI; tomato seedlings, contact prophylactic foliar spray, 4 days
Method in brief: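 Foliar contact prophylactic spray on tomato seedlings (cv Outdoor Girl, second true leaf expanded) in acetone/water 50:50 with 0.04% Tween 20; 24 h at 20° C, 40% R.H., then inoculation with 10^4 spores/ml A. solani conidia. Kept moist at 21° C; lesion cover rated 4 days post-inoculation against untreated or diluent-sprayed controls.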

Plasmopara viticola = assay: Antisporulant activity against vine downy mildew (PVA); type: in vivo; conditions: vine leaves, antisporulant foliar spray, 600 ppm, 750 l/ha
Method in brief: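 Cabernet Sauvignon vines (~8 cm) inoculated on lower leaf surfaces with 5×10^4 zoosporangia/ml, held 24 h at 21° C high humidity then 24 h glasshouse. Infected leaves sprayed underside with 600 ppm compound in 1:1 water/acetone, 0.04% Tween 20, 750 l/ha; 96 h glasshouse, 24 h humidity. Sporulating leaf area rated versus control.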

Botrytis cinerea = assay: Direct protectant activity against broad bean grey mould (BCB); type: in vivo; conditions: direct protectant foliar spray, 600 ppm, 4 days
Method in brief: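 Broad bean plants (cv The Sutton, two leaf pairs) sprayed on upper leaf surfaces at 600 ppm, then inoculated 24 h later with 10^6 conidia/ml. Kept 4 days at 22 °C, high humidity; disease control rated from % leaf area with lesions against untreated or diluent controls.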

[1] = tested on: Erysiphe graminis f.sp. hordei; assay: Activity against barley powdery mildew, direct therapeutic (EGT); type: in vivo; conditions: direct therapeutic foliar spray, 600 ppm, up to 7 days
Method in brief: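 Barley seedlings (cv. Golden Promise, single-leaf stage) were dusted with mildew conidia one day before a therapeutic foliar spray of 600 ppm compound. Plants were kept at 18 °C and 40% humidity for up to 7 days, and sporulating leaf area was rated against untreated or diluent-sprayed controls.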

Phytophthora infestans = type: in vivo; conditions: tomato, direct protectant foliar spray
Pyricularia oryzae = type: in vivo; conditions: rice seedlings, direct therapeutic foliar spray, 600 ppm, 4-5 days
[2] = tested on: Erysiphe graminis f.sp. hordei; assay: Direct protectant activity against barley powdery mildew (EGP); type: in vivo; conditions: direct protectant foliar spray, 8 days
Method in brief: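 Barley seedlings (cv Golden Promise, single-leaf stage) were foliar-sprayed, held 24 h at 18 °C/40% RH, then dusted with mildew conidia. After 8 days at 18 °C/40% RH, sporulating leaf area was scored as a rating against untreated or diluent-sprayed controls.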

[3] = tested on: Pseudocercosporella herpotrichoides; assay: Activity against wheat eyespot in-vitro (PHI); type: cell-based; conditions: 10 ppm, 10 days, 20° C., mycelial growth
Method in brief: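 P. herpotrichoides mycelial fragments (5×10^4/ml) grown in half-strength PDB with compound at 10 ppm final, added from acetone. Incubated 10 days at 20 °C; mycelial growth rated against untreated or diluent controls.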

Leptosphaeria nodorum = assay: Activity against wheat leafspot (LN); type: in vivo; conditions: direct therapeutic foliar spray, 600 ppm, 6-8 days
Method in brief: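 Wheat cv Norman at single-leaf stage spray-inoculated with 1.5×10^6 conidia/ml, held 24 h at high humidity, then sprayed therapeutically with test compound at 600 ppm. Kept 6-8 days at 22° C, 70% humidity; lesion density per leaf rated against untreated or diluent-sprayed controls.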

SMILES: CCCN(CC(C)C)C1COC2(CCC(C(C)(C)C)CC2)C1 (stereo not shown) [Compound 123]
- disease control rating RSI (Rhizoctonia solani): 0 (less than 50% disease control)
- disease control rating VII (Venturia inaequalis): 0 (less than 50% disease control)
- disease control rating AS (Alternaria solani): 0 (less than 50% disease control)
- disease control rating PVA (Plasmopara viticola): 0 (less than 50% disease control)
- disease control rating BCB (Botrytis cinerea): 0 (less than 50% disease control)
- disease control rating EGT [1]: 2 (greater than 80% disease control)
- disease control rating PIP (Phytophthora infestans): 0 (less than 50% disease control)
- disease control rating PO (Pyricularia oryzae): 1 (about 50-80% disease control)
- disease control rating EGP [2]: 2 (greater than 80% disease control)
- disease control rating PHI [3]: 0 (less than 50% disease control)
- disease control rating LN (Leptosphaeria nodorum): 0 (less than 50% disease control)

SMILES: CC(=CC(=O)CC(C)C)NC1COC2(CCC(C(C)(C)C)CC2)C1 (stereo not shown) [Compound 124]
- disease control rating RSI (Rhizoctonia solani): 0 (less than 50% disease control)
- disease control rating VII (Venturia inaequalis): 0 (less than 50% disease control)
- disease control rating AS (Alternaria solani): 0 (less than 50% disease control)
- disease control rating PVA (Plasmopara viticola): 0 (less than 50% disease control)
- disease control rating BCB (Botrytis cinerea): 0 (less than 50% disease control)
- disease control rating EGT [1]: 2 (greater than 80% disease control)
- disease control rating PIP (Phytophthora infestans): 2 (greater than 80% disease control)
- disease control rating PO (Pyricularia oryzae): 0 (less than 50% disease control)
- disease control rating EGP [2]: 2 (greater than 80% disease control)
- disease control rating PHI [3]: 0 (less than 50% disease control)
- disease control rating LN (Leptosphaeria nodorum): 0 (less than 50% disease control)

SMILES: CN(CC1(C)CCCCC1)C1COC2(CCC(C(C)(C)C)CC2)C1 (stereo not shown) [Compound 125]
- disease control rating RSI (Rhizoctonia solani): 0 (less than 50% disease control)
- disease control rating VII (Venturia inaequalis): 1 (about 50-80% disease control)
- disease control rating AS (Alternaria solani): 0 (less than 50% disease control)
- disease control rating PVA (Plasmopara viticola): 0 (less than 50% disease control)
- disease control rating BCB (Botrytis cinerea): 0 (less than 50% disease control)
- disease control rating EGT [1]: 2 (greater than 80% disease control)
- disease control rating PIP (Phytophthora infestans): 0 (less than 50% disease control)
- disease control rating PO (Pyricularia oryzae): 0 (less than 50% disease control)
- disease control rating EGP [2]: 2 (greater than 80% disease control)
- disease control rating PHI [3]: 1 (about 50-80% disease control)
- disease control rating LN (Leptosphaeria nodorum): 0 (less than 50% disease control)

SMILES: CCN(CC1(C)CCCCC1)C1COC2(CCC(C(C)(C)C)CC2)C1 (stereo not shown) [Compound 126]
- disease control rating RSI (Rhizoctonia solani): 0 (less than 50% disease control)
- disease control rating VII (Venturia inaequalis): 1 (about 50-80% disease control)
- disease control rating AS (Alternaria solani): 0 (less than 50% disease control)
- disease control rating PVA (Plasmopara viticola): 0 (less than 50% disease control)
- disease control rating BCB (Botrytis cinerea): 0 (less than 50% disease control)
- disease control rating EGT [1]: 2 (greater than 80% disease control)
- disease control rating PIP (Phytophthora infestans): 0 (less than 50% disease control)
- disease control rating PO (Pyricularia oryzae): 0 (less than 50% disease control)
- disease control rating EGP [2]: 2 (greater than 80% disease control)
- disease control rating PHI [3]: 0 (less than 50% disease control)
- disease control rating LN (Leptosphaeria nodorum): 0 (less than 50% disease control)

SMILES: CCCN(CC1(C)CCCCC1)C1COC2(CCC(C(C)(C)C)CC2)C1 (stereo not shown) [Compound 127]
- disease control rating RSI (Rhizoctonia solani): 0 (less than 50% disease control)
- disease control rating VII (Venturia inaequalis): 1 (about 50-80% disease control)
- disease control rating AS (Alternaria solani): 0 (less than 50% disease control)
- disease control rating PVA (Plasmopara viticola): 0 (less than 50% disease control)
- disease control rating BCB (Botrytis cinerea): 0 (less than 50% disease control)
- disease control rating EGT [1]: 2 (greater than 80% disease control)
- disease control rating PIP (Phytophthora infestans): 0 (less than 50% disease control)
- disease control rating PO (Pyricularia oryzae): 0 (less than 50% disease control)
- disease control rating EGP [2]: 2 (greater than 80% disease control)
- disease control rating PHI [3]: 0 (less than 50% disease control)
- disease control rating LN (Leptosphaeria nodorum): 0 (less than 50% disease control)

SMILES: CN(C1COC2(CCC(C(C)(C)C)CC2)C1)C1CC2CCC1C2 (stereo not shown) [Compound 128]
- disease control rating RSI (Rhizoctonia solani): 0 (less than 50% disease control)
- disease control rating VII (Venturia inaequalis): 1 (about 50-80% disease control)
- disease control rating AS (Alternaria solani): 2 (greater than 80% disease control)
- disease control rating PVA (Plasmopara viticola): 0 (less than 50% disease control)
- disease control rating BCB (Botrytis cinerea): 0 (less than 50% disease control)
- disease control rating EGT [1]: 2 (greater than 80% disease control)
- disease control rating PIP (Phytophthora infestans): 0 (less than 50% disease control)
- disease control rating PO (Pyricularia oryzae): 0 (less than 50% disease control)
- disease control rating EGP [2]: 2 (greater than 80% disease control)
- disease control rating PHI [3]: 0 (less than 50% disease control)
- disease control rating LN (Leptosphaeria nodorum): 0 (less than 50% disease control)

SMILES: CCN(C1COC2(CCC(C(C)(C)C)CC2)C1)C1CC2CCC1C2 (stereo not shown) [Compound 129]
- disease control rating RSI (Rhizoctonia solani): 0 (less than 50% disease control)
- disease control rating VII (Venturia inaequalis): 1 (about 50-80% disease control)
- disease control rating AS (Alternaria solani): 0 (less than 50% disease control)
- disease control rating PVA (Plasmopara viticola): 0 (less than 50% disease control)
- disease control rating BCB (Botrytis cinerea): 0 (less than 50% disease control)
- disease control rating EGT [1]: 2 (greater than 80% disease control)
- disease control rating PIP (Phytophthora infestans): 0 (less than 50% disease control)
- disease control rating PO (Pyricularia oryzae): 0 (less than 50% disease control)
- disease control rating EGP [2]: 2 (greater than 80% disease control)
- disease control rating PHI [3]: 0 (less than 50% disease control)
- disease control rating LN (Leptosphaeria nodorum): 0 (less than 50% disease control)

SMILES: CCCN(C1COC2(CCC(C(C)(C)C)CC2)C1)C1CC2CCC1C2 (stereo not shown) [Compound 130]
- disease control rating RSI (Rhizoctonia solani): 0 (less than 50% disease control)
- disease control rating VII (Venturia inaequalis): 1 (about 50-80% disease control)
- disease control rating AS (Alternaria solani): 0 (less than 50% disease control)
- disease control rating PVA (Plasmopara viticola): 0 (less than 50% disease control)
- disease control rating BCB (Botrytis cinerea): 0 (less than 50% disease control)
- disease control rating EGT [1]: 2 (greater than 80% disease control)
- disease control rating PIP (Phytophthora infestans): 2 (greater than 80% disease control)
- disease control rating PO (Pyricularia oryzae): 0 (less than 50% disease control)
- disease control rating EGP [2]: 2 (greater than 80% disease control)
- disease control rating PHI [3]: 0 (less than 50% disease control)
- disease control rating LN (Leptosphaeria nodorum): 0 (less than 50% disease control)
